From ChEMBL document CHEMBL1201862, “PubChem BioAssay data set” (2004)
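Test compounds were applied to cells in 96-well plates for 48 hours at 5 doses. GI50 = concentration required for 50% inhibition of growth.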 Active and inactive are the calls of the source. Rule as the data show it: active = GI50 up to about 1.1 µM and inactive = higher.

Tests used:
Assay in all cases: NCI anticancer screen, dose series, 48 h
T47D = test system: T47D
M14 = test system: M14
UACC-62 = test system: UACC-62
SF-268 = test system: SF-268
MDA-MB-231 = test system: MDA-MB-231
EKVX = test system: EKVX
SK-MEL-5 = test system: SK-MEL-5
OVCAR-3 = test system: OVCAR-3
SNB-19 = test system: SNB-19
HOP-92 = test system: HOP-92
DMS-114 = test system: DMS-114
HCT-15 = test system: HCT-15
SK-OV-3 = test system: SK-OV-3
Malme-3M = test system: Malme-3M
NCI-H23 = test system: NCI-H23
RXF 631 = test system: RXF 631
SF-295 = test system: SF-295
OVCAR-4 = test system: OVCAR-4
DLD-1 = test system: DLD-1
IGROV-1 = test system: IGROV-1
UO-31 = test system: UO-31
SR = test system: SR
SN12C = test system: SN12C
COLO 205 = test system: COLO 205
TK-10 = test system: TK-10
A498 = test system: A498
OVCAR-5 = test system: OVCAR-5
LOX IMVI = test system: LOX IMVI
HL-60 = test system: HL-60
KM-20L2 = test system: KM-20L2
XF498 = test system: XF498
NCI-H460 = test system: NCI-H460
SNB-75 = test system: SNB-75
KM12 = test system: KM12
M19-MEL = test system: M19-MEL
SF-539 = test system: SF-539
Hs-578T = test system: Hs-578T
ACHN = test system: ACHN
K562 = test system: K562
CCRF-CEM = test system: CCRF-CEM
786-0 = test system: 786-0
UACC-257 = test system: UACC-257
NCI-H522 = test system: NCI-H522
DU-145 = test system: DU-145
A549 = test system: A549
SW-620 = test system: SW-620
HCT-116 = test system: HCT-116
HOP-62 = test system: HOP-62
HCC 2998 = test system: HCC 2998
BT-549 = test system: BT-549
MOLT-4 = test system: MOLT-4
MDA-N = test system: MDA-N
PC-3 = test system: PC-3
RPMI-8226 = test system: RPMI-8226
SNB-78 = test system: SNB-78
NCI/ADR-RES = test system: NCI/ADR-RES
U-251 = test system: U-251
SK-MEL-28 = test system: SK-MEL-28
HT-29 = test system: HT-29
NCI-H226 = test system: NCI-H226
RXF 393 = test system: RXF 393
CAKI-1 = test system: CAKI-1
MCF7 = test system: MCF7
OVCAR-8 = test system: OVCAR-8
LXFL 529 = test system: LXFL 529
SK-MEL-2 = test system: SK-MEL-2
MDA-MB-435 = test system: MDA-MB-435
DMS-273 = test system: DMS-273
HOP-18 = test system: HOP-18

Q: How did the GI50 (T47D) turn out when `Nc1ccc(C(=O)N/C(=C\c2cccc([N+](=O)[O-])c2)c2nc3c(O)nc(S)nc3[nH]2)cc1` was run?
A: 44.2 µM (inactive)

Q: What about the GI50 (M14) of the same compound?
A: > 100 µM (inactive)

Q: And the GI50 (UACC-62)?
A: 41.9 µM (inactive)

Q: And the GI50 (SF-268)?
A: 25.9 µM (inactive)

Q: What about the GI50 (MDA-MB-231) of the same compound?
A: > 53 µM (inactive)

Q: And the GI50 (EKVX)?
A: > 84.9 µM (inactive)

Q: What about the GI50 (SK-MEL-5) of the same compound?
A: > 100 µM (inactive)

Q: What about the GI50 (OVCAR-3) of the same compound?
A: > 100 µM (inactive)

Q: And the GI50 (SNB-19)?
A: 42 µM (inactive)

Q: What about the GI50 (HOP-92) of the same compound?
A: 20.9 µM (inactive)

Q: What about the GI50 (DMS-114) of the same compound?
A: > 86.3 µM (inactive)

Q: What about the GI50 (HCT-15) of the same compound?
A: > 100 µM

Q: And the GI50 (SK-OV-3)?
A: 22.8 µM (inactive)

Q: What about the GI50 (Malme-3M) of the same compound?
A: > 100 µM (inactive)

Q: What about the GI50 (NCI-H23) of the same compound?
A: > 100 µM (inactive)

Q: And the GI50 (RXF 631)?
A: 37.2 µM (inactive)

Q: And the GI50 (SF-295)?
A: 37.3 µM (inactive)

Q: And the GI50 (OVCAR-4)?
A: > 100 µM (inactive)

Q: And the GI50 (DLD-1)?
A: > 100 µM (inactive)

Q: And the GI50 (IGROV-1)?
A: 55.1 µM (inactive)

Q: What about the GI50 (UO-31) of the same compound?
A: 30.3 µM (inactive)

Q: And the GI50 (SR)?
A: > 100 µM (inactive)

Q: What about the GI50 (SN12C) of the same compound?
A: > 88.7 µM (inactive)

Q: And the GI50 (COLO 205)?
A: > 100 µM (inactive)

Q: What about the GI50 (TK-10) of the same compound?
A: > 79.4 µM (inactive)

Q: And the GI50 (A498)?
A: 65.8 µM (inactive)

Q: And the GI50 (OVCAR-5)?
A: > 100 µM (inactive)

Q: What about the GI50 (LOX IMVI) of the same compound?
A: > 92.7 µM (inactive)

Q: And the GI50 (HL-60)?
A: > 100 µM (inactive)

Q: What about the GI50 (KM-20L2) of the same compound?
A: > 100 µM (inactive)

Q: And the GI50 (XF498)?
A: 16.9 µM (inactive)

Q: And the GI50 (NCI-H460)?
A: > 100 µM (inactive)

Q: And the GI50 (SNB-75)?
A: 6.61 µM (inactive)

Q: What about the GI50 (KM12) of the same compound?
A: > 100 µM (inactive)

Q: What about the GI50 (M19-MEL) of the same compound?
A: > 100 µM (inactive)

Q: What about the GI50 (SF-539) of the same compound?
A: 18.5 µM (inactive)

Q: And the GI50 (Hs-578T)?
A: 29.9 µM (inactive)

Q: And the GI50 (ACHN)?
A: > 76.2 µM (inactive)

Q: What about the GI50 (K562) of the same compound?
A: > 100 µM (inactive)

Q: What about the GI50 (CCRF-CEM) of the same compound?
A: > 100 µM (inactive)

Q: What about the GI50 (786-0) of the same compound?
A: 24.5 µM (inactive)

Q: What about the GI50 (UACC-257) of the same compound?
A: > 100 µM (inactive)

Q: What about the GI50 (NCI-H522) of the same compound?
A: > 100 µM (inactive)

Q: What about the GI50 (DU-145) of the same compound?
A: > 100 µM (inactive)

Q: And the GI50 (A549)?
A: 74.3 µM (inactive)

Q: And the GI50 (SW-620)?
A: > 100 µM (inactive)

Q: And the GI50 (HCT-116)?
A: 81.3 µM (inactive)

Q: And the GI50 (HOP-62)?
A: 17.2 µM (inactive)

Q: And the GI50 (HCC 2998)?
A: > 100 µM (inactive)

Q: And the GI50 (BT-549)?
A: > 100 µM (inactive)

Q: What about the GI50 (MOLT-4) of the same compound?
A: > 56.2 µM (inactive)

Q: What about the GI50 (MDA-N) of the same compound?
A: > 100 µM (inactive)

Q: And the GI50 (PC-3)?
A: > 100 µM (inactive)

Q: What about the GI50 (RPMI-8226) of the same compound?
A: > 100 µM (inactive)

Q: And the GI50 (SNB-78)?
A: 39.3 µM (inactive)

Q: And the GI50 (NCI/ADR-RES)?
A: > 100 µM (inactive)

Q: What about the GI50 (U-251) of the same compound?
A: 42.7 µM (inactive)

Q: What about the GI50 (SK-MEL-28) of the same compound?
A: > 100 µM (inactive)

Q: And the GI50 (HT-29)?
A: > 100 µM (inactive)

Q: And the GI50 (NCI-H226)?
A: > 51.8 µM (inactive)

Q: What about the GI50 (RXF 393) of the same compound?
A: 27.4 µM (inactive)

Q: What about the GI50 (CAKI-1) of the same compound?
A: > 100 µM (inactive)

Q: What about the GI50 (MCF7) of the same compound?
A: > 93.8 µM (inactive)

Q: What about the GI50 (OVCAR-8) of the same compound?
A: 31 µM (inactive)

Q: What about the GI50 (LXFL 529) of the same compound?
A: > 57.7 µM (inactive)

Q: And the GI50 (SK-MEL-2)?
A: 53.7 µM (inactive)

Q: What about the GI50 (MDA-MB-435) of the same compound?
A: > 100 µM (inactive)

Q: For `COc1cc2ccnc3c(=C(SC)SC)c(=O)c(c1OC)c23`, which GI50 (M14) is on record?
A: 13.9 µM (inactive)

Q: And the GI50 (UACC-62)?
A: 17.8 µM (inactive)

Q: What about the GI50 (SF-268) of the same compound?
A: 22.2 µM (inactive)

Q: What about the GI50 (EKVX) of the same compound?
A: > 10 µM (inactive)

Q: And the GI50 (SK-MEL-5)?
A: > 10 µM (inactive)

Q: What about the GI50 (OVCAR-3) of the same compound?
A: 14.9 µM (inactive)

Q: What about the GI50 (SNB-19) of the same compound?
A: 53.2 µM (inactive)

Q: And the GI50 (HOP-92)?
A: 5.64 µM (inactive)

Q: What about the GI50 (DMS-114) of the same compound?
A: 17.3 µM (inactive)

Q: And the GI50 (HCT-15)?
A: 11.9 µM

Q: And the GI50 (SK-OV-3)?
A: > 100 µM (inactive)

Q: And the GI50 (Malme-3M)?
A: 11.4 µM (inactive)

Q: What about the GI50 (NCI-H23) of the same compound?
A: > 10 µM (inactive)

Q: What about the GI50 (RXF 631) of the same compound?
A: 14.8 µM (inactive)

Q: And the GI50 (SF-295)?
A: 58.1 µM (inactive)

Q: What about the GI50 (OVCAR-4) of the same compound?
A: 15.8 µM (inactive)

Q: What about the GI50 (DLD-1) of the same compound?
A: 13.9 µM (inactive)

Q: What about the GI50 (IGROV-1) of the same compound?
A: 21 µM (inactive)

Q: And the GI50 (UO-31)?
A: 14.6 µM (inactive)

Q: And the GI50 (SN12C)?
A: 15.2 µM (inactive)

Q: What about the GI50 (COLO 205) of the same compound?
A: 3.37 µM (inactive)

Q: What about the GI50 (TK-10) of the same compound?
A: 14 µM (inactive)

Q: What about the GI50 (OVCAR-5) of the same compound?
A: 20.9 µM (inactive)

Q: And the GI50 (LOX IMVI)?
A: 2.87 µM (inactive)

Q: What about the GI50 (HL-60) of the same compound?
A: 2.26 µM (inactive)

Q: What about the GI50 (KM-20L2) of the same compound?
A: 15.7 µM (inactive)

Q: And the GI50 (NCI-H460)?
A: 35.3 µM (inactive)

Q: What about the GI50 (SNB-75) of the same compound?
A: 10.2 µM (inactive)

Q: And the GI50 (KM12)?
A: 22.4 µM (inactive)

Q: And the GI50 (M19-MEL)?
A: 16 µM (inactive)

Q: What about the GI50 (SF-539) of the same compound?
A: 17.4 µM (inactive)

Q: And the GI50 (ACHN)?
A: 12.9 µM (inactive)

Q: What about the GI50 (K562) of the same compound?
A: 3.29 µM (inactive)

Q: What about the GI50 (CCRF-CEM) of the same compound?
A: 2.86 µM (inactive)

Q: And the GI50 (786-0)?
A: 11 µM (inactive)

Q: And the GI50 (UACC-257)?
A: 13.6 µM (inactive)

Q: What about the GI50 (NCI-H522) of the same compound?
A: 1.56 µM (inactive)

Q: What about the GI50 (A549) of the same compound?
A: 42.3 µM (inactive)

Q: And the GI50 (SW-620)?
A: 15.7 µM (inactive)

Q: What about the GI50 (DMS-273) of the same compound?
A: 13.8 µM (inactive)

Q: And the GI50 (HOP-62)?
A: > 100 µM (inactive)

Q: And the GI50 (HCC 2998)?
A: 16.4 µM (inactive)

Q: And the GI50 (MOLT-4)?
A: 4.6 µM (inactive)

Q: And the GI50 (RPMI-8226)?
A: 3.29 µM (inactive)

Q: And the GI50 (U-251)?
A: 42.7 µM (inactive)

Q: And the GI50 (SK-MEL-28)?
A: 13 µM (inactive)

Q: What about the GI50 (HT-29) of the same compound?
A: 12.3 µM (inactive)

Q: And the GI50 (RXF 393)?
A: 13 µM (inactive)

Q: And the GI50 (CAKI-1)?
A: 10.3 µM (inactive)

Q: And the GI50 (HOP-18)?
A: 13.3 µM (inactive)

Q: And the GI50 (OVCAR-8)?
A: 10.6 µM (inactive)

Q: And the GI50 (LXFL 529)?
A: 4.65 µM (inactive)

Q: What about the GI50 (SK-MEL-2) of the same compound?
A: 16.2 µM (inactive)
